Test results: US7388006B2, “Non-steroidal progesting” (Bayer Schering Pharma AG, priority 2002, dated 2008)

Test system: pregnancy in ovariectomized rats
Experiment: Pregnancy maintenance test in rat
Format: in vivo
Conditions: for Maintenance of pregnancy, factor compared to R5020: potency relative to R5020
Excerpt: In rats, castration induces termination of pregnancy. Progestins (combined with estrogens) are capable of maintaining pregnancy in castrated animals. However, the degree of pregnancy maintenance in castrated rats is optimal only in a defined dose range. Therefore, higher as well as lower doses generally induce a weaker effect. Accompanying treatment with defined doses of estrone (E1) increases the pregnancy maintaining effect of progestins.
Pregnant rats (Wistar Han, SPF) of 190 to 220 g (5 to 8 animals per dose) are ovariectomized on day 8 of pregnancy, 2 hours after the first substance administration. From day 8 to day 14, rats are daily treated with test progestin in combination with a standard dose of E1. One day later, animals are killed with carbon dioxide. For each animal, the number of living and dead fetuses is determined according to the heartbeat of the embryos. In case of empty uteri, the number of implantation sites is determined by means of staining with a 10% ammonium sulfide solution.
S.c. (subcutaneous) application: The test progestin is dissolved in benzyl benzoate/castor oil (1+4 v/v), and the daily dose is administered in a volume of 1 ml/kg body weight.
P.o. (peroral) application: The test progestin is suspended in a carrier liquid (85 mg Myrj^R in 100 ml 0.9% w/v NaCl solution), and the daily dose is administered in a volume of 2 ml/kg body weight.
I.p. (intraperitoneal) application: The test progestin is dissolved in propylene glycol and charged in miniature osmotic pumps (type 2001, 1.0 μl/h, 7 days), which are placed in the abdominal cavity of the rat.
The standard dose of estrone is 0.005 mg/kg body weight s.c. and is dissolved in benzyl benzoate/castor oil ([…]).
It is determined the pregnancy maintenance per animal [%], the pregnancy maintenance per dose (median of single values) and the EC50 (dose, at which pregnancy is maintained in 50% of the animals; 100% corresponds to control animals that are not ovariectomized). The results of the test are further discussed below in c).

O=C1OCc2cc(NC(=O)C(O)(CC3(c4cc(C(F)(F)F)ccc4F)CC3)C(F)(F)F)ccc21 (single isomer, unassigned; (+)) [((+)-1), (+)-5-{2-hydroxy-3-[1-(2-fluoro-5-trifluoromethylphenyl)-cyclopropyl]-2-trifluoromethyl-propionylamino}-phthalide]
Androgenic activity in the pregnancy maintenance test (dose 100 times higher than the dose required for maintaining pregnancy): no androgenic activity
Pregnancy-maintaining activity EC50 value (rat): 12 µg/kg/day
Maintenance of pregnancy, factor compared to R5020 (rat): eight times as potent
Maintenance of pregnancy, factor compared to R5020 (rat, listed as ((+)−1)): 8
